# From patent US20240208952A1, “THIOPHENE GLP-1 RECEPTOR AGONIST AND USE THEREOF” (priority 2021, published 2024)
# Experiments:
# [1] = molecular target: T1, Human GLP-1R (Homo sapiens, UniProt P43220); assay: GLP-1R agonist activity, HTRF cAMP level test in 293A GFP-GLP-1R cells; type: cell-based
# T1 construct: expressed in transfected cells
# Experimental: GLP-1R-mediated agonist activity was determined by cell-based assays using a homogeneous time-resolved fluorescence (i.e., HTRF)-based cAMP detection kit, which measures the level of cAMP in cells. The method was a competitive immunoassay. It enabled direct pharmacological characterization of compounds acting on Gs-coupled receptors in adherent or suspending cells.
# The standard curve of native cAMP or unlabeled cAMP produced by cells competed with d2-labeled cAMP red receptors to bind monoclonal anti-cAMP Eu3+ cryptate donors, and the specific signal was inversely proportional to the concentration of cAMP in standard or tested samples.
# Human GLP-1R encoding sequence (NCBI reference sequence NP_002053.3) was subcloned into pEGFP-N1 (tsingke), and the cell line stably expressing the receptor was isolated.
# The final DMSO concentration in the buffer mixture was determined to be 1% o.
# Cells were collected from a T25 tissue culture flask and centrifuged at room temperature at 1000 rpm for 5 minutes. The cell precipitates were then re-suspended in 1 mL of the stimulating buffer. 20 μL sample of cell suspension was counted on a counter STAR IC 1000 to determine the cell viability and the cell count per mL. The remaining cell suspension was then regulated with the stimulating buffer to deliver 2000 living cells per well using a multi-channel pipette. 5 μL of the cell suspension was added to each well of the plate which already contained the compound. The plate was sealed and incubated at 37° C. with 5% CO2 for 30 minutes.
# After 30 minutes of incubation, 5 μL of d2-labeled cAMP and 5 μL of anti-cAMP cryptate (both 1:20 diluted in the cell lysis buffer) were added to each well of the plate. The plate was then incubated at room temperature for 60 minutes, and the changes of HTRF signal were read with Tecan Spark reader: […] at 340 nm (excitation)/at 615 nm and 665 nm (emission). Raw data were converted into nM cAMP by interpolation from the cAMP standard curve, and the effect in percentage was determined relative to the saturated concentration of the complete agonist GLP-17˜37 (400 nM) contained in each plate. Determination of EC50 was performed based on the agonist dose-response curve, which was analyzed using a four-parameter logical dose-response equation with a curve fitting program.
# The test data presented the results in the form of a geometric mean (EC50s) based on the number of repetition times.
# [2] = Metabolic stability in (human) liver microsomes; type: in vitro ADME; conditions: pH 7.4, 0.5 mg/mL microsomal protein, 37° C., 0-45 minutes, LC-MS/MS, read-out: LMS(t1/2 min)
# Experimental: 1. Experimental design: test concentration: […]; control compound: testosterone; culture conditions: cultured at 37° C. for 0, 5, 15, 30, 45 minutes; method of determination: LC-MS/MS; calculation method: T1/2=0.693/K (K is the rate constant of the ln [concentration] vs. incubation time profile), Clint=(0.693/T1/2)×(1/(microsomal protein concentration (0.5 mg/mL)))×scaling factor.
# 2. Experimental method: 1. preheating 0.1 M K-buffer, […], pH=7.4; 2. test solutions of test compound and reference compound, 500 μM additive solution: 5 μL of 10 mM stock solution was added to 95 μL can; […] and 18.75 μL of 20 Mg/mL liver microsome were added to 479.75 μL of K/Mg buffer; 3. 3×NADPH stock solution (6 mM, 5 mg/mL) was prepared by dissolving NADPH in the buffer solution; 4. 30 μL of 1.5 μM additive solution containing 0.75 mg/mL microsomal solution was distributed to the plates designated for different time points (0, 5, 15, 30, 45 minutes); 5. at 0 min, 150 μL of ACN containing IS was added to the wells of the plate, followed by addition of 15 μL of NADPH stock solution (6 mM, step 3); 6. all other plates were pre-incubated at 37° C. for 5 minutes; 7. adding 15 μL of NADPH stock solution to the plate to start the reaction and timing; 8. 150 μL of ACN containing IS was added to the wells of the corresponding plates to stop the reaction at 5 min, 15 min, 30 min and 45 min, respectively; 9. after quenching, the plates were shaken on a shaker for 10 minutes (600 rpm/min) and then centrifuged at 6000 rpm for 15 minutes; 10. 80 μL of supernatant was transferred from each well to a 96-well sample plate containing 140 μL water for LC/MS analysis.
# Detection method: LC-MS/MS-11 (8050), internal standard: tolbutamide; MS conditions: positive ion ESI for testosterone and test compound, and negative ion ESI for tolbutamide; Mobile phases: mobile phase A is 0.1% FA in water, and mobile phase B is 0.1% FA in ACN; Column and specification: ACQUITY UPLC HSS T3 1.8 um 2.1*50 mm.
# [3] = molecular target: hERG potassium channel (Homo sapiens, UniProt Q12809); assay: Inhibition of hERG potassium channels, whole-cell patch clamp in HEK-hERG cells; conditions: HEK293 cells stably expressing hERG (HEK-hERG)
# Experimental: The cell suspension was added to a small petri dish and placed on an inverted microscope stage.
# Such a set of pulse programming was repeated every 15 seconds throughout the experiment.
# T1 sequence (P43220 24-463): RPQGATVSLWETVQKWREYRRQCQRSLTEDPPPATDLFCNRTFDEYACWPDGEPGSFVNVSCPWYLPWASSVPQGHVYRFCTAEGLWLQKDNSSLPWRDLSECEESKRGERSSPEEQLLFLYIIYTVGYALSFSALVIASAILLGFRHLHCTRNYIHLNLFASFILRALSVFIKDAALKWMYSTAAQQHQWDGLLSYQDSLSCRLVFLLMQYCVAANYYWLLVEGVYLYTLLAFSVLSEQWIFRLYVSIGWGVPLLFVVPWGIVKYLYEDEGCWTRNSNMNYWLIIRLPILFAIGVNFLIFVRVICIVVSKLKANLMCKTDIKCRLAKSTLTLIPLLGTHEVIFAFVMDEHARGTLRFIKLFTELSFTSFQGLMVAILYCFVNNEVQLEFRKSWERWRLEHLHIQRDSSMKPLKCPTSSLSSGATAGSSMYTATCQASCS
# hERG potassium channel, sequence (Q12809 whole entry): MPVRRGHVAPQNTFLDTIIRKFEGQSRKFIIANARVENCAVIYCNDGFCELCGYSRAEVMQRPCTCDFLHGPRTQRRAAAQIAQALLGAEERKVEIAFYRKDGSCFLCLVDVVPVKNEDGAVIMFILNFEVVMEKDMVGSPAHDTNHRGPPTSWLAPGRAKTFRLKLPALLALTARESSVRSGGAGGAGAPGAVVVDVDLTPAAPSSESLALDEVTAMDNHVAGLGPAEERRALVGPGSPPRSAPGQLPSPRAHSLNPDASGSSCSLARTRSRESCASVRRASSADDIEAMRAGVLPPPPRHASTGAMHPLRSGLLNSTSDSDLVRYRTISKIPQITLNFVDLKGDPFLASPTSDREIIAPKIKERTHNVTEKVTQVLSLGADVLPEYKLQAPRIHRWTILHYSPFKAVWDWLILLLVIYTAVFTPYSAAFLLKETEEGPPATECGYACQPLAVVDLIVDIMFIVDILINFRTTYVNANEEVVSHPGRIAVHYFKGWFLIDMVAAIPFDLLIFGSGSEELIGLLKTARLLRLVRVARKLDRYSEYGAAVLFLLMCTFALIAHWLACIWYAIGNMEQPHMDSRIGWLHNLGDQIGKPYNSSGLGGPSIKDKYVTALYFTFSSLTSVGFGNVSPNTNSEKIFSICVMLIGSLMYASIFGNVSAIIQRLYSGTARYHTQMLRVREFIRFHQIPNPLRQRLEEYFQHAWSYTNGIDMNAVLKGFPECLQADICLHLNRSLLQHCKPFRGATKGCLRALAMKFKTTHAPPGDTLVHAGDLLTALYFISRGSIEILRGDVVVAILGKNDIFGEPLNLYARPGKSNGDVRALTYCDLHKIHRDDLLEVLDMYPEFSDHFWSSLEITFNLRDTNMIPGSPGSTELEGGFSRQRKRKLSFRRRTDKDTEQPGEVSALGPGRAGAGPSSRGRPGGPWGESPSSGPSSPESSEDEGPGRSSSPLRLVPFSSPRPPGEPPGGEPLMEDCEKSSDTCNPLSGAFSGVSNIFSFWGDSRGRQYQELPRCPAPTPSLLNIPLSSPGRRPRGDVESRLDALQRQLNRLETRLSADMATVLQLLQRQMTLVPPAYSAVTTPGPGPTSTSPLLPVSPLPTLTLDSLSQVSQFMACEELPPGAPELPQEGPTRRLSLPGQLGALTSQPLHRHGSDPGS
SMILES,EC50 [1] [nM],half-life at 1 μM [2] [min],inhibition at 1 µM [3] [%],inhibition at 10 µM [3] [%]
"CC(=O)c1ccc(COc2cccc(C3CCN(Cc4nc5ccc(C(=O)O)cc5n4C[C@@H]4CCO4)CC3)n2)s1 [Compound 1, (S)-2-((4-(6-((5-acetylthiophen-2-yl)methoxy)pyridin-2-yl)piperidin-1-yl)methyl)-1-(oxetan-2-ylmethyl)-1H-benzo[d]imidazole-6-carboxylic acid]",4.67,115,9.82,53.8
"O=C(O)c1ccc2nc(CN3CCC(c4cccc(OCc5ccc(C(=O)C6CC6)s5)n4)CC3)n(C[C@@H]3CCO3)c2c1 [Compound 6, (S)-2-((4-(6-((5-(cyclopropanecarbonyl)thiophen-2-yl)methoxy)pyridin-2-yl)piperidin-1-yl)methyl)-1-(oxetan-2-ylmethyl)-1H-benzo[d]imidazole-6-carboxylic acid]",0.03,–,–,–
O=C(O)c1ccc2nc(CN3CCC(c4cccc(OCc5ccc(-c6cncnc6)s5)n4)CC3)n(C[C@@H]3CCO3)c2c1 [Compound 13],0.47,–,–,–
"N#Cc1ccc(COc2cccc(C3CCN(Cc4nc5ccc(C(=O)O)cc5n4C[C@@H]4CCO4)CC3)n2)s1 [Compound 4, (S)-2-((4-(6-((5-Cyanothiophen-2-yl)methoxy)pyridin-2-yl)piperidin-1-yl)methyl)-1-(oxetan-2-ylmethyl)-1H-benzo[d]imidazole-6-carboxylic acid]",1,132,14.2,72.2
"O=C(O)c1ccc2nc(CN3CCC(c4cccc(OCc5ccc(C(F)(F)F)s5)n4)CC3)n(C[C@@H]3CCO3)c2c1 [Compound 9, (S)-1-(oxetan-2-ylmethyl)-2-((4-(6-((5-(trifluoromethyl)thiophen-2-yl)methoxy)pyridin-2-yl)piperidin-1-yl)methyl)-1H-benzo[d]imidazole-6-carboxylic acid]",0.08,–,–,–
"N#Cc1ccc(COc2ccc3c(n2)C2=C(COC3)CN(Cc3nc4ccc(C(=O)O)cc4n3C[C@@H]3CCO3)CC2)s1 [Compound 12, (S)-2-((2-((5-cyanothiophen-2-yl)methoxy)-5,8,10,11-tetrahydro-oxepino[4,3-b:6,5-c′]dipyridin-9(7H)-yl)methyl)-1-(oxetan-2-ylmethyl)-1H-benzo[d]imidazole-6-carboxylic acid]",0.5,59.8,–,–

# The next lines start with results.
EC50 [1] [nM],half-life at 1 μM [2] [min],SMILES,inhibition at 1 µM [3] [%],inhibition at 10 µM [3] [%]
88.8,–,"CC(=O)c1csc(COc2cccc(C3CCN(Cc4nc5ccc(C(=O)O)cc5n4C[C@@H]4CCO4)CC3)n2)c1 [Compound 2, (S)-2-((4-(6-((4-acetylthiophen-2-yl)methoxy)pyridin-2-yl)piperidin-1-yl)methyl)-1-(oxetan-2-ylmethyl)-1H-benzo[d]imidazole-6-carboxylic acid]",–,–
0.02,21.2,"N#Cc1cc(Cl)c(COc2cccc(C3CCN(Cc4nc5ccc(C(=O)O)cc5n4C[C@@H]4CCO4)CC3)n2)s1 [Compound 7, (S)-2-((4-(6-((3-chloro-5-cyanothiophen-2-yl)methoxy)pyridin-2-yl)piperidin-1-yl)methyl)-1-(oxetan-2-ylmethyl)-1H-benzo[d]imidazole-6-carboxylic acid]",–,–
121,–,"CC(=O)c1cc(COc2cccc(C3CCN(Cc4nc5ccc(C(=O)O)cc5n4C[C@@H]4CCO4)CC3)n2)cs1 [Compound 3, (S)-2-((4-(6-((5-acetylthiophen-3-yl)methoxy)pyridin-2-yl)piperidin-1-yl)methyl)-1-(oxetan-2-ylmethyl)-1H-benzo[d]imidazole-6-carboxylic acid]",–,–
0.56,37.3,"CC(=O)c1cc(Cl)c(COc2cccc(C3CCN(Cc4nc5ccc(C(=O)O)cc5n4C[C@@H]4CCO4)CC3)n2)s1 [Compound 5, (S)-2-((4-(6-((5-acetyl-3-chlorothien-2-yl)methoxy)pyridin-2-yl)piperidin-1-yl)methyl)-1-(oxetan-2-ylmethyl)-1H-benzo[d]imidazole-6-carboxylic acid]",–,–
0.1,–,"Cc1cc(C#N)sc1COc1cccc(C2CCN(Cc3nc4ccc(C(=O)O)cc4n3C[C@@H]3CCO3)CC2)n1 [Compound 11, (S)-2-((4-(6-((5-cyano-3-methylthiophen-2-yl)methoxy)pyridin-2-yl)piperidin-1-yl)methyl)-1-(oxetan-2-ylmethyl)-1H-benzo[d]imidazole-6-carboxylic acid]",–,–
0.05,–,"N#Cc1sc(COc2cccc(C3CCN(Cc4nc5ccc(C(=O)O)cc5n4C[C@@H]4CCO4)CC3)n2)cc1Cl [Compound 8, (S)-2-((4-(6-((4-chloro-5-cyanothiophen-2-yl)methoxy)pyridin-2-yl)piperidin-1-yl)methyl)-1-(oxetan-2-ylmethyl)-1H-benzo[d]imidazole-6-carboxylic acid]",–,–
0.05,22.5,"O=C(O)c1ccc2nc(CN3CCC(c4cccc(OCc5cc6ccncc6s5)n4)CC3)n(C[C@@H]3CCO3)c2c1 [Compound 10, 1-(oxetan-2-ylmethyl)-2-((4-(6-(thieno[2,3-c]pyridin-2-ylmethoxy)pyridin-2-yl)piperidin-1-yl)methyl)-1H-benzo[d]imidazole-6-carboxylic acid]",–,–
